Patent publication US10174015B2, “Substituted heterocyclic derivative, preparation method and use thereof” (Xiamen University, priority 2014, dated 2019)
Where two headings read alike, the source gives them in different places.

How the values were obtained:
[1] = test system: NAAA; conditions: NAAA inhibitor, literature value; cited from earlier work
[2] = test system: inflammatory pain induced by carrageenan and neuropathic pain caused by sciatic nerve ligation; conditions: cited from earlier work
[3] = Assay on drug metabolism in rat; type: in vivo, SD rats; conditions: SD, plasma, iv, 30 mg/Kg via jugular vein
From the text: 50 SD rats (purchased from Shanghai SLAC Laboratory Animal Co., Ltd) were divided into 5 groups randomly, 10 rats per group. After anesthesia with ether, rat was fixed on the operating table on its back, and was shaved at the operative site of neck. After disinfection with 75% alcohol, the neck was cut about 1.5 cm longitudinally, muscle tissues and nervi vascularis surrounding trachea were separated by blunt dissection, and carotid artery was separated by blunt dissection. Ligation was performed at distal end, an artery clamp was used at proximal part, and the distance between them was about 1 cm. A small cut was made with a pair of ophthalmic scissors at proximal part close to the ligated site, and arterial duct was introduced from the small cut to the proximal part, the artery clamp was loosened, the arterial ostium was clamped with smooth forceps, whilst the arterial duct was delivered to heart ventricle. Upon the introduction of the arterial duct into heart ventricle, the blood vessel was ligated. By using the same intubation method for artery, intubation was applied to jugular veins. After intubation, a tubule filled with heparin sodium was drawn out from artery and vein, which passed through the skin under the ear of the rat and drawn out from the dorsal part skin of the neck of the rat, and the tubule was fixed well. The muscles and skin were sutured at the surgical site of the rat, and normal saline containing heparin sodium was injected from time to time via the tubule connecting the artery and the vein to prevent tubule obstruction due to blood coagulation. The rat was placed in a warm and clean cage provided with water and food, waiting for the rat to wake up naturally.
After the rat regained consciousness and acted normally, assay on metabolic stability of compounds was performed in the rat. All the agents to be injected (including compounds to be tested and control drug) were dissolved in a mixed solvent of PEG400:Tween 80:normal saline (at a volume ratio of 5:5:90), at a concentration of 5 mg/mL. The agent was injected slowly at a dose of 30 mg/Kg via the tubule drawn out from the jugular vein. After administration, the time was recorded, and blood was collected from the tubule drawn out from carotid artery at 2, 5, 10, 20, 30, 60, 240, 360, and 720 min, in an amount of 200 μL for each time. The whole blood was placed in commercially available heparin sodium blood-collecting tube (Jiangxi Jingzhi Medical Equipment Co., Ltd.), centrifuged at 1800 g for 15 min. To the supernatant plasma, 150 μL pre-cooled methanol stopping buffer (containing internal standard E8, 1 nmol/sample) was added, vertically mixed well, and then centrifuged at 4° C., 12000 g for 10 min. The supernatant was transferred to a sample vial, the target compound was detected by LC-MS/MS, and the content of the compound was calculated by virtue of standard curve.

[4] = Stability assay in rat plasma; type: in vitro ADME; conditions: 37° C.
Description: To each of several tubes sub-packaged with rat plasma, PBS solution was added in a volume equal to a quarter of plasma volume, and the resultant mixture was mixed well. […] At different time points (0, 10, 30, 60, 120, 240, 360, 720, 1440 min), 50 μL plasma sample was taken and added to 150 μL precooled methanol (containing the internal standard compound E8, with a structure of
[drawing 117] and a name of 1-(2-Biphenyl-4-yl)ethyl-carbonyl pyrrolidine, 1 nmol/sample), wherein three parallel samples were prepared for each time point. The samples were then vertically mixed well, and centrifuged at 4° C., 12000 g for 10 min. The supernatant was transferred to a sample vial. LC-MS/MS was used to measure the peak area at different time points, Analyst® version 1.4.1. software was used to analyze chromatographic peak, and the content of the target compound was calculated by virtue of the standard curve.

[5] = Stability assays at acidic and basic conditions; type: physicochemical
Description: The sample containing the compound to be tested was then incubated in a constant temperature shaker at 37° C. At different time points (0 min, 10 min, 30 min, 1 h, 2 h, 4 h, 6 h, 12 h, 24 h), 50 μL sample was taken and added to 150 μL precooled methanol (containing the internal standard E8, 1 nmol/sample), wherein three parallel samples were prepared for each time point. The samples were then vertically mixed well, and transferred to a sample vial. LC-MS/MS was used to measure the peak area at different time points, Analyst® version 1.4.1. software was used to analyze chromatographic peak, and the content of the target compound was calculated based on the standard curve.

[6] = test system: SNI neuropathic pain; assay: Neuropathic pain mouse model induced by spared nerve injury (SNI); type: in vivo, C57BL/6 mice; conditions: SNI mice, 10 mg/kg intraperitoneal, 1 h and 4 h after administration (FIGS. 1 and 2)
Description: (§1) In the Experimental example, compounds to be evaluated or compounds to be tested or test compounds used are the Compounds 1-46 prepared in the Examples according to the invention. In the Experimental example, all the agents for injection, including compounds to be evaluated or compounds to be tested or test compounds, and positive control drug, were dissolved in a mixed solvent of PEG400:Tween 80:normal saline (at a volume ratio of 5:5:90), at a concentration of 5 mg/mL.
Neuropathic pain mouse model induced by spared nerve injury (SNI) is a common animal model for studying neuropathic pain medically. The invention uses the model to evaluate the therapeutic effects of the compounds on neuropathic pain, wherein the model can represent peripheral neuropathic pain including, but not limited to post-herpetic neuralgia, pain caused by diabetic perineuropathy, neurothlipsis and exudation caused by tumor, lumbar surgery failure syndrome, neuropathic pain caused by lumbar disc protrusion, postpartum neuralgia, trigeminal neuralgia, chemotherapy-induced multiple neuropathic pain, post-radiotherapy plexopathy, and radicular neuralgia.
C57BL/6 mice (purchased from Shanghai SLAC Laboratory Animal Co., Ltd) were anesthetized by intraperitoneal injection with pentobarbital sodium (40 mg/kg), and skin from knee joint to gluteal region was subjected to skin preparation and disinfection. After the mice were fixed, the knee joint part was cut about 1 cm longitudinally with bistoury, and muscle tissues were separated by blunt dissection to expose sciatic nerve. The tibial and common peroneal nerve branches of sciatic nerve stem were cut off carefully, and the cut was then stitched up. The mice was placed in a clean observation cage. In the sham-operation group, only sciatic nerve was exposed without cutting the tibial and common peroneal nerve branches. From the day before the experiment to 24 h after the operation, the plantar edges of the mice were stimulated everyday by […] (Ugo Basile Company (Italy), Product ID: 37450), and data was collected automatically to obtain the threshold value of mice to mechanical stimulation. […] The positive control drug gabapentin was administered at a dose of 100 mg/kg. All the agents to be injected were dissolved in a mixed solvent of PEG400:Tween 80:normal saline (at a volume ratio of 5:5:90), at a concentration of 5 mg/mL. By comparing the threshold values (the acting force of when the mouse retracting the paw) at different administration time in different administration groups, the compound was evaluated for its analgesic effect on neuropathic pain.

[7] = test system: inflammatory abdominal pain caused by acetic acid; assay: Abdominal inflammatory pain caused by acetic acid; type: in vivo, Kunming mice; conditions: mice, 10 mg/kg i.p. 1 h before acetic acid; indometacin 20 mg/kg (FIG. 4)
Description: as §1
Typical model for studying inflammation-induced visceral pain medically was used to evaluate the therapeutic effects of compounds on inflammatory visceral pain. The model can represent general visceral pain including, but not only limited to appendicitis, gastritis, pancreatitis, prostatitis, myocarditis, interstitial cystitis, pain caused by hepatic, gall or kidney stone, irritable bowel syndrome, and chronic pelvic pain syndrome.
Experimental Kunming mice (purchased by Xiamen University Laboratory Animal Center from Shanghai SLAC Laboratory Animal Co., Ltd) were in an experimental environment with free access to food and water for 1 week. The mice were fasted for 24 h before administration. The compound to be evaluated (10 mg/kg) was administered to the mice by intraperitoneal injection at 1 h before administration of acetic acid, wherein the positive control drug indometacin was administered at a dose of 20 mg/kg, and the blank control was normal saline. Acetic acid (50 μL, acetic acid dissolved in normal saline, at a concentration of 5%) was administered to the mice by intraperitoneal injection, and the mice were then placed in the observation cage. A video camera was used to record the behavior of the mice in the following 20 min. Pain-related behavior was analyzed statistically based on torsion times of the mice in said period.

[8] = test system: headache caused by nitroglycerin; assay: Nitroglycerin-induced headache rat model; type: in vivo, Wistar rats; conditions: rats, 10 mg/kg i.p. 1 h before nitroglycerin (FIG. 5)
Description: as §1
Nitroglycerin-induced headache rat model was a common model for studying inflammatory pain medically. The model was used in the invention to evaluate the therapeutic effects of the compounds on headache. The model can represent mixed pain including, but not only limited to: migraine, cluster headache, tension headache syndrome, prosopodynia, lumbodynia, shoulder pain, burning mouth syndrome, and complex regional pain syndrome.
Experimental Wistar rats with a body weight of about 250 g for each (purchased from Shanghai SLAC Laboratory Animal Co., Ltd) were in an experimental environment with free access to food and water for 1 week. The rats were fasted for 24 h before administration. The compound to be evaluated (10 mg/kg) was intraperitoneally injected to the rat at 1 h before the administration of nitroglycerin, wherein the positive control drug was indomethacin and the blank control was normal saline. Nitroglycerin (10 mg/kg, nitroglycerin dissolved in normal saline, at a concentration of 5%) was injected at epidermis of the rat neck, and the rats were then placed in the observation cage. A video camera was used to record the behavior of the rats in the following 60 min. Pain-related behavior was analyzed statistically based on the times that the rat scratched its head in said period.

[9] = target: N-acylethanolamide hydrolyzing acid amidase (NAAA) (Rattus norvegicus, UniProt Q5KTC7); assay: Endocannabinoid hydrolase activity: NAAA inhibition (17:1 FAE hydrolysis, LC-MS); type: biochemical
Chain of N-acylethanolamide hydrolyzing acid amidase (NAAA) (Q5KTC7 34-130 limits assumed): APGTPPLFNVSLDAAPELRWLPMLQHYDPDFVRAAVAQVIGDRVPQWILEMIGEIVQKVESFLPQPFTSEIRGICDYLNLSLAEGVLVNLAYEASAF
Chain of N-acylethanolamide hydrolyzing acid amidase (NAAA) (Q5KTC7 131-362 limits assumed): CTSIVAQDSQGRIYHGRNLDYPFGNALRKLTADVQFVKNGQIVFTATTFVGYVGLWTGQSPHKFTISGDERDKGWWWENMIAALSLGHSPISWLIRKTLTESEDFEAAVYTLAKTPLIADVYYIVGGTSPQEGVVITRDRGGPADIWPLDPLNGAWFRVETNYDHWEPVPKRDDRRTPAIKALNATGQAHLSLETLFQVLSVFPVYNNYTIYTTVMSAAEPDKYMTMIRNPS
Description: The preparation method was as followed: a plasmid (pCDNA3.1/NAAA or pCDNA3.1/FAAH) carrying a whole NAAA/FAAH gene was constructed, wherein the plasmid carried Cytomegalovirus (CMV) promoter and Neomycin selectable gene; the plasmid was transformed into HEK-293 cell via lipid medium, stable cell lines expressing NAAA/FAAH at a high level were obtained by G418 screening and Western-blot method. HEK-293 recombinant cells were cultured and collected, washed with PBS for 2-3 times, and ultrasonically treated in 20 mM Tris-HCl containing 0.32 M sucrose, then repeatedly frozen and thawed twice, and then centrifuged at 4° C., 800 g for 15 min. The supernatant (i.e., the desired protein) was collected, the protein concentration was determined by BCA method, and the protein was diluted to a concentration of 1 mg/mL, and sub-packaged and stored in a refrigerator at −80° C. for further use.
The reaction was carried out at 37° C. for 10 min. 170 μL buffer (the buffer consisted of 50 mM disodium Hydrogen Phosphate, 0.1% Triton X-100, 3 mM DTT, 150 μL) containing enzymatic hydrolysis substrate (the substrate was a heptadecenoyl ethanolamine containing a double bond and 17 carbon atoms, abbreviated as 17:1 FAE) was further added, wherein the concentration of 17:1 FAE was 5 μM. The reaction was carried out at 37° C. for 30 min, and 200 μL methanol solution containing internal standard (the internal standard was margaric acid, at a concentration of 1 nmol) was then added to stop the reaction. LC-MS was used to determine the yield of the hydrolysate 17:1 FA (i.e., a heptadecenoic acid containing a double bond) of 17:1 FAE, then a graph was plotted with Graphpad Prism 5. Thereby, the IC50 of the test compound on endocannabinoid hydrolase was determined.

[10] = target: hERG potassium channel (Homo sapiens (Human), UniProt Q12809); assay: hERG potassium channel automated patch clamp in CHO-hERG cells
Chain of hERG potassium channel (Q12809 whole entry): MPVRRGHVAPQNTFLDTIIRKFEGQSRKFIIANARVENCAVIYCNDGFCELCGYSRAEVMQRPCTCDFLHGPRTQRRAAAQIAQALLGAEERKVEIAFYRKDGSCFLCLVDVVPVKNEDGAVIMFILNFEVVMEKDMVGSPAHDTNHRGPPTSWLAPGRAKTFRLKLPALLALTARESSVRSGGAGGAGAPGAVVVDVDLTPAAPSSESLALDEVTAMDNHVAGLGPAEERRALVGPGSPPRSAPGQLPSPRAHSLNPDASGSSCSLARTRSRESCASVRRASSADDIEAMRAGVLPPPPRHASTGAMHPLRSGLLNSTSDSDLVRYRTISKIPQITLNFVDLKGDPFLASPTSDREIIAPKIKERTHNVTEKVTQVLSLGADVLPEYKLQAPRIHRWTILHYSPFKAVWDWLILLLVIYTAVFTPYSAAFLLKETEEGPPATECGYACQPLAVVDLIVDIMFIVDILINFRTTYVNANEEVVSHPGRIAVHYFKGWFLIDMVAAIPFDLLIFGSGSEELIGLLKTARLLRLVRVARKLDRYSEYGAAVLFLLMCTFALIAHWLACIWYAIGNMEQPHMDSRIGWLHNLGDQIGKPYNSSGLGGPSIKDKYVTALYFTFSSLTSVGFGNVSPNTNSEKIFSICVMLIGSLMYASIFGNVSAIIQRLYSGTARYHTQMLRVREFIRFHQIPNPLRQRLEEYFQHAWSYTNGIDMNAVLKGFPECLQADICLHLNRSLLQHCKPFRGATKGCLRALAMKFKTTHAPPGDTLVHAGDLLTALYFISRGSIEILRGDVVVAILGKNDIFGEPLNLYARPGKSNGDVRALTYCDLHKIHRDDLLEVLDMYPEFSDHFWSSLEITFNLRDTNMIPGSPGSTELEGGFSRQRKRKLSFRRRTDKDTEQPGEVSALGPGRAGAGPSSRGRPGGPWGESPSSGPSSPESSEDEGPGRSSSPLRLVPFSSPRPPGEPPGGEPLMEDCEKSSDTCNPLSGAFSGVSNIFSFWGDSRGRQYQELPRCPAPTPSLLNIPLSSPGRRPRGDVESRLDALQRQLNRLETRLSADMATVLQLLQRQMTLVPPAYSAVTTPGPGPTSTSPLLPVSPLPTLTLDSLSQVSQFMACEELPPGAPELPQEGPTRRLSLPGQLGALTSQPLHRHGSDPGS
Description: CHO-hERG cells (purchased from ATCC) were incubated in a culture flask. When the cell density reached 60˜80%, the culture medium (Glutamax DMEM/F12 medium (Gibco, Shanghai) containing 10% fetal bovine serum) was removed. The cells were washed with 7 mL PBS once, and then digested by adding 3 mL Detachin cell dissociation buffer. After complete digestion, the resultant mixture was neutralized by adding 7 mL culture medium, and centrifuged. The supernatant was removed with a pipette, 5 mL culture medium was added to re-suspend the cells to ensure a cell density of 2˜5×10^6/mL.
Intracellular fluid and extracellular fluid were prepared as described in the following table.
A certain amount of compound was dissolved in […] at the following concentrations, to prepare the stock solution of compound. 2 μL stock solution of compound was added to 998 μL extracellular fluid, and was subjected to 5-fold serial dilution in extracellular fluid containing 0.2% DMSO to get the final concentrates to be tested.
Single cell giga-seal and formation of whole-cell mode were automatically performed by Sophion Qpatch HT fully automated cell patch clamp systems. After obtaining the whole-cell recording mode, the cell was clamped at −80 mV. The cell first underwent pre-voltage of −50 mV for 50 msec, then underwent depolarization stimulation at 20 mV for 5 sec, and then underwent repolarization at −50 mV for 5 sec, and then the voltage return to −80 mv. The cell underwent the stimulation at the voltage every 15 sec, and the data were recorded for 2 min, then extracellular fluid was administered, and then the data were recorded for 2 min. Then, the administration process begun. The concentration of a test compound started from the lowest concentration, each test concentration was administered for 2 min. […] At least three cells were tested for each concentration (n≥3). The experimental data was analyzed by XLFit software.

[11] = PBS pH 5.0, 37° C., read-out: Half-life pH 5.0
[12] = PBS pH 7.4, 37° C., read-out: Half-life pH 7.4

Row | SMILES | half-life [3] [h] | half-life at 2 μM [4] [h] | half-life at 1 μM [5, 11] [h] | half-life at 1 μM [5, 12] [h] | IC50 [9] [nM] | other results
1 | C[C@@H]1OC(=O)[C@@H]1NC(=O)OCCCCCc1ccccc1 [ARN077] |  |  |  |  |  | IC50 [1]: 127 nM; analgesic effects on allodynia compared with gabapentin ([2]; sciatic nerve ligation, ARN077 1%, 20 μL, epidermal, gabapentin 50 mg/kg oral): better analgesic effects on allodynia than the positive control agent gabapentin; effect on inflammatory and neuropathic pain ([2]; topical administration): significantly inhibit inflammatory pain induced by carrageenan and neuropathic pain caused by sciatic nerve ligation
2 | O=C(CCCCCc1cccc(F)c1)N1CCOC1=O [Compound 8, 3-Fluorophenylhexanoyl Oxazolidinone] | 1.55 | 2.75 | > 24 | > 24 |  | 
3 | CC(=O)C[C@@H]1COC(=O)N1C(=O)CCCCCc1cccc(C)c1 [Compound 11] | 3.07 | 4.45 | > 24 | > 24 |  | 
4 | O=C1OCCN1C(=O)C1CCC(Cc2ccccc2)CC1 (centres unmarked) [Compound 24, 4-Benzylcyclohexanoyl Oxazolidinone] |  |  |  |  |  | effect of inhibiting central neuropathic pain [6]: did not exhibit any effect of inhibiting central neuropathic pain; effect of inhibiting abdominal inflammatory pain [7]: did not exhibit any effect of inhibiting abdominal inflammatory pain; effect of inhibiting nitroglycerin-induced headache [8]: did not exhibit any effect of inhibiting headache in rats
5 | N[C@H]1CC(=O)N(C(=O)CCCCCc2ccccc2)C1 [Compound 30] |  |  |  |  |  | effect of inhibiting central neuropathic pain [6]: did not exhibit any effect of inhibiting central neuropathic pain; effect of inhibiting abdominal inflammatory pain [7]: did not exhibit any effect of inhibiting abdominal inflammatory pain; effect of inhibiting nitroglycerin-induced headache [8]: did not exhibit any effect of inhibiting headache in rats
6 | O=C(CCCCCc1ccc(O)cc1)N1CCOC1=O [Compound 31, 4-Hydroxyphenylhexanoyl Oxazolidinone] | 1.23 | 2.2 | > 24 | > 24 |  | 
7 | Cc1cccc(CCCCCC(=O)N2CCOC2=O)c1 [Compound 32, 3-Methylphenylhexanoyl Oxazolidinone] |  |  |  |  | 350 | 
8 | Cc1ccc(CCCCCC(=O)N2CCOC2=O)cc1 [Compound 33, 4-Methylphenylhexanoyl Oxazolidinone] |  |  |  |  | 440 | 
9 | O=C(CCCCCC1CCCNC1)N1CCOC1=O (centres unmarked) [Compound 34, Piperidin-3-yl-hexanoyl Oxazolidinone] |  |  |  |  |  | IC50 [10]: > 40000 nM
10 | O=C1OCCN1C(=O)c1ccc(Oc2ccccc2)cc1 [Compound 41, 4-Phenoxybenzoyl Oxazolidinone] | 2.92 | 5.33 | > 24 | > 24 | 680 | 
